Experimental data as given in EP3383875B1, “3-PYRIMIDINYL PYRROLO [2,3-B] PYRIDINE AS ANTICANCER AGENTS AND THE PROCESS FOR THE PREPARATION THEREOF” (Council Of Scientific & Industrial Research, priority 2015, dated 2017).
Like-named read-outs stand apart in the source and are kept apart here.

Experiments:
[1] = target: CDK-2/cyclin A (Homo sapiens, UniProt P24941); test: CDK inhibition assay, CDK-2/cyclin A against Histone HI, 33P-ATP; assay type: biochemical; details: at 500 nM
Outline: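 CDK-2/cyclin A (5-20 mU) phosphorylating Histone HI (1 mg/ml) in 50 mM Hepes pH 7.5, 100 mM NaCl, 10 mM Mg acetate, 0.02 mM [33P-γ-ATP], 30 min at room temperature. Stopped with orthophosphoric acid, captured on P81 filters for radiometric readout.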

[2] = system: HCT-116; test: MTT assay on cancer cell line HCT-116; assay type: cell-based, human; details: for inhibition at 10 µM: Homo sapiens
Description: (§1) Cell culture, growth conditions and treatments. […] Different molecules were dissolved in DMSO and were delivered to cell cultures in complete medium.

[3] = system: MDA-MB435; test: MTT assay on cancer cell line MDA-MB435; assay type: cell-based, Human; details: for inhibition at 10 µM: Homo sapiens, MDA-MB-435
Description: as §1

[4] = system: SHSY-5Y; test: MTT assay on cancer cell line SHSY-5Y; assay type: cell-based, human; details: for inhibition at 10 µM: Homo sapiens, SH-SY5Y; for In vitro cell inhibition, % of inhibition, SHSY-5Y: at 10µM
Description: as §1

[5] = system: MCF-7; test: MTT assay on cancer cell line MCF-7; assay type: cell-based, Human; details: for inhibition at 10 µM: Homo sapiens; for In vitro cell inhibition, % of inhibition, MCF-7: at 10µM
Description: as §1

[6] = target: CDK-9/Cyclin T1 (Homo sapiens, UniProt P50750); test: CDK inhibition assay, CDK-9/Cyclin T1 against substrate peptide, 33P-ATP; assay type: biochemical; details: at 500 nM
Sequence of CDK-9/Cyclin T1 (P50750 whole entry): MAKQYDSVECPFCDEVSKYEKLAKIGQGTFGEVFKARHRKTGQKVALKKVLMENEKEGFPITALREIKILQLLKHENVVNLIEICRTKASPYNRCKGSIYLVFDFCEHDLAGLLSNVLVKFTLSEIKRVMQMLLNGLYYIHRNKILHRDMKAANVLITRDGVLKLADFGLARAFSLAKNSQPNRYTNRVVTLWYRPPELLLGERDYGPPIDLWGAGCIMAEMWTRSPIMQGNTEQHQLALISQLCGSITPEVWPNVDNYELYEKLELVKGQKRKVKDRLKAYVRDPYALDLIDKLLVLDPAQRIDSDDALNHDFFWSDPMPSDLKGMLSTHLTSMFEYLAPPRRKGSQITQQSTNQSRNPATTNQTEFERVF
Sequence of CDK-9/Cyclin T1 (O60563 whole entry partner): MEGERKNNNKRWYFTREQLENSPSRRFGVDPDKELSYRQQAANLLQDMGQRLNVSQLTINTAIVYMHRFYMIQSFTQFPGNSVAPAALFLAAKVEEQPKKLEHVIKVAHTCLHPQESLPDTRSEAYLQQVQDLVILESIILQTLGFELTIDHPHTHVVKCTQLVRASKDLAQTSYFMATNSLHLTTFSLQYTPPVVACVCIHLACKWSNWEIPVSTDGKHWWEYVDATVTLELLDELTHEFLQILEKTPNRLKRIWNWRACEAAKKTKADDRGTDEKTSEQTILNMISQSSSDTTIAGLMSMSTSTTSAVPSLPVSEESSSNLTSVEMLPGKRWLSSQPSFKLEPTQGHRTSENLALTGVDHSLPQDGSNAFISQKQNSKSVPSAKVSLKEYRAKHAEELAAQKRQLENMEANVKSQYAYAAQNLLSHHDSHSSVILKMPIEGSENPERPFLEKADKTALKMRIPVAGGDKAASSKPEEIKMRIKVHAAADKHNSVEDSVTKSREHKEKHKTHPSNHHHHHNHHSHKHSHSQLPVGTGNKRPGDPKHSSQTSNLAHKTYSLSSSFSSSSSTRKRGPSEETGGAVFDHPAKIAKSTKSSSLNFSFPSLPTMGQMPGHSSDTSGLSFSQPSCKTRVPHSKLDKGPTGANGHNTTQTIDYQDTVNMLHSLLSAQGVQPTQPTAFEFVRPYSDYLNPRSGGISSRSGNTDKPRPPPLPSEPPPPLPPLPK
Description: (50-1000 cpm/pmole) and incubated for 30 min at room temperature. Assays were stopped by addition of 5 µl of 0.5 M (3%) orthophosphoric acid and then harvested onto P81 Unifilter plates with a wash buffer of 50 mM orthophosphoric acid.

[7] = system: PC-3; test: MTT assay on cancer cell line PC-3; assay type: cell-based, human; details: for inhibition at 10 µM: Homo sapiens; for In vitro cell inhibition, % of inhibition, PC-3: at 10µM
Description: as §1

[8] = Table-7, read-out: In vitro CDK2 % of inhibition
[9] = read-out: inhibition against CDK2
[10] = at 10µM, Table 8, read-out: In vitro cell inhibition, % of inhibition, HCT-116
[11] = MDA-MB435, at 10µM, Table 8, read-out: In vitro cell inhibition, % of inhibition, MDA-MB435
[12] = SHSY-5Y, Table 8, read-out: In vitro cell inhibition, % of inhibition, SHSY-5Y
[13] = read-out: inhibition against SHSY-5Y cell lines
[14] = MCF7, MCF-7, Table 8, read-out: In vitro cell inhibition, % of inhibition, MCF-7
[15] = MCF7, read-out: inhibition against MCF-7 cell lines
[16] = Table-7, read-out: In vitro CDK9 % of inhibition
[17] = read-out: inhibition against CDK9
[18] = Table 8, read-out: In vitro cell inhibition, % of inhibition, PC-3
[19] = at 10µM, Table 9 (for reference), read-out: In vitro cell inhibition, % of inhibition, HCT-116
[20] = MDA-MB435, at 10µM, Table 9 (for reference), read-out: In vitro cell inhibition, % of inhibition, MDA-MB435
[21] = SHSY-5Y, Table 9 (for reference), read-out: In vitro cell inhibition, % of inhibition, SHSY-5Y
[22] = MCF7, MCF-7, Table 9 (for reference), read-out: In vitro cell inhibition, % of inhibition, MCF-7
[23] = Table 9 (for reference), read-out: In vitro cell inhibition, % of inhibition, PC-3
[24] = Table-6, read-out: In vitro CDK2 % of inhibition
[25] = at 10 µM, read-out: inhibition against HCT-116 cell lines
[26] = at 10 µM, read-out: inhibition against MDAMB-435 cell lines
[27] = Table-6, read-out: In vitro CDK9 % of inhibition
[28] = read-out: inhibition against PC-3 cell lines

inhibition at 0.5 µM [1, 8] [%] | inhibition at 0.5 µM [1, 9] [%] | inhibition at 0.5 µM [6, 16] [%] | inhibition at 0.5 µM [6, 17] [%] | SMILES | inhibition at 10 µM [2, 10] [%] | inhibition at 10 µM [3, 11] [%] | inhibition at 10 µM [4, 12] [%] | inhibition at 10 µM [4, 13] [%] | inhibition at 10 µM [5, 14] [%] | inhibition at 10 µM [5, 15] [%] | inhibition at 10 µM [7, 18] [%] | inhibition at 10 µM [2, 19] [%] | inhibition at 10 µM [3, 20] [%] | inhibition at 10 µM [4, 21] [%] | inhibition at 10 µM [5, 22] [%] | inhibition at 10 µM [7, 23] [%] | further results
> 70 | > 70 | > 70 | > 70 | c1cncc(-c2cnc3[nH]cc(-c4ccnc(NC5CCCCCC5)n4)c3c2)c1 [1A55, N-cycloheptyl-4-(5-(pyridin-3-yl)-1H-pyrrolo[2,3-b]pyridin-3-yl)pyrimidin-2-amine] | > 50 | > 50 | > 70 | > 70 | < 50 | < 50 | > 50 |  |  |  |  |  | 
> 70 | > 70 | > 70 | > 70 | Cc1cccc(-c2cnc3[nH]cc(-c4ccnc(N)n4)c3c2)c1 [1C7, 4-(5-(m-tolyl)-1H-pyrrolo[2,3-b]pyridin-3-yl)pyrimidin-2-amine] |  |  |  | > 70 |  | > 50 |  | > 70 | > 70 | > 70 | > 50 | > 50 | 
> 70 | > 70 | > 70 | > 70 | CCc1ccccc1-c1cnc2[nH]cc(-c3ccnc(N)n3)c2c1 [1C10, 4-(5-(2-ethylphenyl)-1H-pyrrolo[2,3-b]pyridin-3-yl)pyrimidin-2-amine] |  |  |  | > 70 |  | > 70 |  | > 70 | > 70 | > 70 | > 70 | > 70 | 
 | > 50 |  | > 50 | c1ccc2c(-c3cnc4[nH]cc(-c5ccnc(NC6CC6)n5)c4c3)cccc2c1 [1A14, N-cyclopropyl-4-(5-(naphthalen-1-yl)-1H-pyrrolo[2,3-b]pyridin-3-yl)pyrimidin-2-amine] | > 70 | > 70 | > 70 | > 70 | > 70 | > 70 | > 70 |  |  |  |  |  | inhibition at 0.5 µM [1, 24]: > 50%; inhibition at 10 µM [2, 25]: > 70%; inhibition at 10 µM [3, 26]: > 70%; inhibition at 0.5 µM [6, 27]: > 50%
< 50 |  | < 50 |  | FC(F)(F)c1ccc(-c2cnc3[nH]cc(-c4ccnc(NCCc5ccccc5)n4)c3c2)cc1 [1B1, N-phenethyl-4-(5-(4-(trifluoromethyl)phenyl)-1H-pyrrolo[2,3-b]pyridin-3-yl)pyrimidin-2-amine] | > 50 | < 50 | > 70 | > 70 | > 50 | > 50 | > 70 |  |  |  |  |  | 
 | > 50 |  | > 50 | c1cncc(-c2cnc3[nH]cc(-c4ccnc(NC5CC5)n4)c3c2)c1 [1A15, N-cyclopropyl-4-(5-(pyridin-3-yl)-1H-pyrrolo[2,3-b]pyridin-3-yl)pyrimidin-2-amine] | > 70 | > 70 | > 70 | > 70 | > 70 | > 70 | > 50 |  |  |  |  |  | inhibition at 0.5 µM [1, 24]: > 50%; inhibition at 10 µM [2, 25]: > 70%; inhibition at 10 µM [3, 26]: > 70%; inhibition at 0.5 µM [6, 27]: > 50%; inhibition at 10 µM [7, 28]: > 50%
 | > 70 |  | > 70 | Fc1cccc(-c2cnc3[nH]cc(-c4ccnc(NC5CC5)n4)c3c2)c1 [1A5, N-cyclopropyl-4-(5-(3-fluorophenyl)-1H-pyrrolo[2,3-b]pyridin-3-yl)pyrimidin-2-amine] | > 70 | > 70 | > 70 | > 70 | > 70 | > 70 | > 70 |  |  |  |  |  | inhibition at 0.5 µM [1, 24]: > 70%; inhibition at 10 µM [2, 25]: > 70%; inhibition at 10 µM [3, 26]: > 70%; inhibition at 0.5 µM [6, 27]: > 70%
> 50 |  | > 50 |  | Fc1cccc(-c2cnc3[nH]cc(-c4ccnc(NCCc5ccccc5)n4)c3c2)c1 [1B5, 4-(5-(3-fluorophenyl)-1H-pyrrolo[2,3-b]pyridin-3-yl)-N-phenethylpyrimidin-2-amine] | > 50 | > 50 | > 70 | > 70 | > 50 | > 50 | > 50 |  |  |  |  |  | inhibition at 10 µM [7, 28]: > 50%
 |  |  |  | Nc1nccc(-c2c[nH]c3ncccc23)n1 [Meriolin 1, reference compound] |  |  |  |  |  |  |  |  |  |  |  |  | In vitro cell inhibition, % of inhibition, HCT-116 ([2]; at 10µM, Table 8): ++ (++ indicates greater than 50% of inhibition (++ >50% of inhibition)); In vitro cell inhibition, % of inhibition, HCT-116 ([2]; at 10µM, Table 9 (for reference)): ++ (++ indicates greater than 50% of inhibition (++ > 50% of inhibition)); In vitro cell inhibition, % of inhibition, MDA-MB435 ([3]; MDA-MB435, at 10µM, Table 8): ++ (++ indicates greater than 50% of inhibition (++ >50% of inhibition)); In vitro cell inhibition, % of inhibition, MDA-MB435 ([3]; MDA-MB435, at 10µM, Table 9 (for reference)): ++ (++ indicates greater than 50% of inhibition (++ > 50% of inhibition)); In vitro cell inhibition, % of inhibition, SHSY-5Y ([4]; SHSY-5Y, Table 8): +++ (+++ indicates greater than 70% of inhibition (+++ >70% of inhibition)); In vitro cell inhibition, % of inhibition, SHSY-5Y ([4]; SHSY-5Y, Table 9 (for reference)): +++ (+++ indicates greater than 70% of inhibition (+++ >70% of inhibition)); In vitro cell inhibition, % of inhibition, MCF-7 ([5]; Table 8): ++ (++ indicates greater than 50% of inhibition (++ >50% of inhibition)); In vitro cell inhibition, % of inhibition, MCF-7 ([5]; Table 9 (for reference)): ++ (++ indicates greater than 50% of inhibition (++ > 50% of inhibition)); In vitro CDK9 % of inhibition ([6]; Table-6): +++ (+++ indicates greater than 70% of inhibition (+++ >70% of inhibition)); In vitro cell inhibition, % of inhibition, PC-3 ([7]; Table 8): ++ (++ indicates greater than 50% of inhibition (++ >50% of inhibition)); In vitro cell inhibition, % of inhibition, PC-3 ([7]; Table 9 (for reference)): ++ (++ indicates greater than 50% of inhibition (++ > 50% of inhibition))
 |  |  |  | Nc1nccc(-c2c[nH]c3ncc(-c4cc5ccccc5[nH]4)cc23)n1 [1C19, 4-(5-(1H-indol-2-yl)-1H-pyrrolo[2,3-b]pyridin-3-yl)pyrimidin-2-amine] |  |  |  | > 70 |  | > 70 |  | > 50 | > 50 | > 70 | > 50 | < 50 | 
 |  |  |  | COc1ccc(-c2cnc3[nH]cc(-c4ccnc(N)n4)c3c2)cc1 [1C11, 4-(5-(4-methoxyphenyl)-1H-pyrrolo[2,3-b]pyridin-3-yl)pyrimidin-2-amine] |  |  |  | > 70 |  | > 50 |  | > 70 | > 70 | > 70 | > 50 | < 50 | 
 |  |  |  | Nc1nccc(-c2c[nH]c3ncc(-c4cccnc4)cc23)n1 [1C15, 4-(5-(pyridin-3-yl)-1H-pyrrolo[2,3-b]pyridin-3-yl)pyrimidin-2-amine] |  |  |  | > 70 |  | > 70 |  | > 50 | > 70 | > 70 | > 70 | < 50 | 
 |  |  |  | Nc1nccc(-c2c[nH]c3ncc(-c4ccc(C(F)(F)F)cc4)cc23)n1 [1C1, 4-(5-(4-(trifluoromethyl)phenyl)-1H-pyrrolo[2,3-b]pyridin-3-yl)pyrimidin-2-amine] |  |  |  |  |  | > 50 |  | > 50 | < 50 | > 50 | > 50 | > 50 | 
